Patent publication US20080045494A1, “Pyridine Analogues VI” (ASTRAZENECA AB, priority 2006, published 2008)

Biological target: T1, P2Y12 receptor (Homo sapiens, UniProt Q9H244)
T1 construct: expressed in transfected cells; host or cells: CHO cells (membranes)
Assay: Functional inhibition of 2-Me-S-ADP induced P2Y12 signalling (35S-GTPγS, membranes from P2Y12 transfected CHO-cells)
Assay type: biochemical
Settings: EC80 concentration of agonist 2-methyl-thio-adenosine diphosphate; 30° C., 45 min
Method: Functional inhibition of the P2Y12 receptor can be measured by in vitro assays using cell membranes from P2Y12 transfected CHO-cells, the methodology is indicated below.
Functional inhibition of 2-Me—S-ADP induced P2Y12 signalling: 5 μg of membranes were diluted in 200 μl of 200 mM NaCl, 1 mM MgCl2, 50 mM HEPES (pH 7.4), 0.01% BSA, 30 μg/ml saponin and 10 μM GDP. To this was added an EC80 concentration of agonist (2-methyl-thio-adenosine diphosphate), the required concentration of test compound and 0.1 μCi ^35S-GTPγS. The reaction was allowed to proceed at 30° C. for 45 min. Samples were then transferred on to GF/B filters using a cell harvester and washed with wash buffer (50 mM Tris (pH 7.4), 5 mM MgCl2, 50 mM NaCl). Filters were then covered with scintillant and counted for the amount of ^35S-GTPγS retained by the filter. Maximum activity was that determined in the presence of the agonist and minimum activity in the absence of the agonist following subtraction of the value determined for non-specific activity. The effect of compounds at various concentrations was plotted according to the equation: […]
y=A+((B−A)/(1+((C/x)̂D)))
A is the bottom plateau of the curve i.e. the final minimum y value
B is the top of the plateau of the curve i.e. the final maximum y value
C is the x value at the middle of the curve. This represents the log EC50 value when A+B=100 […]

T1 sequence (Q9H244 whole entry): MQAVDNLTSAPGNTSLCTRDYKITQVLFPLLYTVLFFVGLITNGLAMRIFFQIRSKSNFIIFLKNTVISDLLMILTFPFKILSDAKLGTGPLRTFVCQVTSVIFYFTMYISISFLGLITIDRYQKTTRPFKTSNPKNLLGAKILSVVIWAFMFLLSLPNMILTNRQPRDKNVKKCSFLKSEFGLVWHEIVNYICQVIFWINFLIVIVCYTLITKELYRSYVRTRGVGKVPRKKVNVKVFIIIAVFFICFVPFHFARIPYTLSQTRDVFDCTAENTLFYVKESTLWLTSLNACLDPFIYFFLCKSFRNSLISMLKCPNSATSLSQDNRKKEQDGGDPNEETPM

CCOC(=O)c1cc(C#N)c(NCC(=O)NS(=O)(=O)CCc2ccccc2)nc1C(F)(F)F [Example 6, Ethyl 5-cyano-6-[(2-oxo-2-{[(2-phenylethyl)sulfonyl]amino}ethyl)amino]-2-(trifluoromethyl)nicotinate] gave an IC50 of 240 nM.
With “Ethyl 6-{[3-({[(5-chloro-2-thienyl)sulfonyl]amino}carbonyl)cyclopentyl]amino}-5-cyano-1-(trifluoromethyl)nicotinate [Example 3]” the IC50 was 810 nM.
